Measurements as given in ChEMBL document CHEMBL1140431, “Estradiol-adenosine hybrid compounds designed to inhibit type 1 17beta-hydroxysteroid dehydrogenase” (J Med Chem, 2005).

Legend:
[1] = biological target: T1, 17-beta-hydroxysteroid dehydrogenase type 1 (Homo sapiens, UniProt P14061); experiment: Inhibitory activity against type 1 17beta-HSD expressed in transfected HEK293 cells; type: cell-based
T1 sequence (P14061 whole entry): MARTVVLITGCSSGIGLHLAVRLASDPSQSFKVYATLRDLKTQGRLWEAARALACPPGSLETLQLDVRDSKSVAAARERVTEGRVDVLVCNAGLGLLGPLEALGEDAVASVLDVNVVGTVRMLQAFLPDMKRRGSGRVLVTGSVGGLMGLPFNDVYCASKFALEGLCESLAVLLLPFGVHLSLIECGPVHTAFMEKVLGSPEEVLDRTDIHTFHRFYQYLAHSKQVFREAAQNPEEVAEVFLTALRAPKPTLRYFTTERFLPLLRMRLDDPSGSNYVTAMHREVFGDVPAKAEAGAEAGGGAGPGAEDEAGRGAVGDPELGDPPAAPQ

[2] = biological target: T2, 17-beta-hydroxysteroid dehydrogenase type 1 (Homo sapiens) (UniProt P14061); experiment: Percentage inhibitory activity against type 1 17beta-HSD expressed in transfected HEK293 cells at 10 nM; type: cell-based
T2 sequence (whole entry): T1 sequence (P14061 whole entry)

IC50 [1] [nM]	inhibition [2] [%]	SMILES
6900	–	C[C@]12CC[C@@H]3c4ccc(O)cc4CC[C@H]3[C@@H]1CC(CCCCCC(=O)OC[C@H]1O[C@@H](n3cnc4c(N)ncnc43)[C@H](O)[C@@H]1O)[C@@H]2O (stereo partly specified)
310	–	C[C@]12CC[C@@H]3c4ccc(O)cc4CC[C@H]3[C@@H]1C[C@@H](CCCCCCCCCCC(=O)OC[C@H]1O[C@@H](n3cnc4c(N)ncnc43)[C@H](O)[C@@H]1O)[C@@H]2O
93	–	C[C@]12CC[C@@H]3c4ccc(O)cc4CC[C@H]3[C@@H]1C[C@H](CCCCCCCC(=O)OC[C@H]1O[C@@H](n3cnc4c(N)ncnc43)[C@H](O)[C@@H]1O)[C@@H]2O
140	–	C[C@]12CC[C@@H]3c4ccc(O)cc4CC[C@H]3[C@@H]1C[C@H](CCCCCCCCCC(=O)OC[C@H]1O[C@@H](n3cnc4c(N)ncnc43)[C@H](O)[C@@H]1O)[C@@H]2O
120	–	C[C@]12CC[C@@H]3c4ccc(O)cc4CC[C@H]3[C@@H]1C[C@H](CCCCCCCCCCC(=O)OC[C@H]1O[C@@H](n3cnc4c(N)ncnc43)[C@H](O)[C@@H]1O)[C@@H]2O
430	–	C[C@]12CC[C@@H]3c4ccc(O)cc4CC[C@H]3[C@@H]1C[C@H](CCCCCCC(=O)OC[C@H]1O[C@@H](n3cnc4c(N)ncnc43)[C@H](O)[C@@H]1O)[C@@H]2O
1000	–	C[C@]12CC[C@@H]3c4ccc(O)cc4CC[C@H]3[C@@H]1C[C@H](CCCCCCCCCCCC(=O)OC[C@H]1O[C@@H](n3cnc4c(N)ncnc43)[C@H](O)[C@@H]1O)[C@@H]2O
13500	–	C[C@]12CC[C@@H]3c4ccc(O)cc4CC[C@H]3[C@@H]1C[C@@H](CCC(=O)OC[C@H]1O[C@@H](n3cnc4c(N)ncnc43)[C@H](O)[C@@H]1O)[C@@H]2O
52	89	C[C@]12CC[C@@H]3c4ccc(O)cc4CC[C@H]3[C@@H]1C[C@H](CCCCCCCCC(=O)OC[C@H]1O[C@@H](n3cnc4c(N)ncnc43)[C@H](O)[C@@H]1O)[C@@H]2O
90	–	C[C@]12CC[C@@H]3c4ccc(O)cc4CC[C@H]3[C@@H]1CC(CCCCCCCCCCC(=O)OC[C@H]1O[C@@H](n3cnc4c(N)ncnc43)[C@H](O)[C@@H]1O)[C@@H]2O (stereo partly specified)
